Measurements from patent publication US20260224588A1, “BENZODIAZEPINONE-DERIVED INHIBITORS OF EGFR AND HER2” (The Research Foundation for the State University of New York, priority 2023, published 2026).

Tests used:
Assay in all cases: KINOMEscan
Assay type in all cases: binding
Conditions in all cases: 1 μM of compound 4; read-out: POC
INSR = INSR (Homo sapiens, UniProt P06213)
CAMK2B = CAMK2B (Homo sapiens, UniProt Q13554)
ULK2 = molecular target: T1, ULK2 (Homo sapiens, UniProt Q8IYT8)
T1 construct: purchased Eurofins DiscoverX

[1] = molecular target: T2, ABL1(F317L)-phosphorylated (Homo sapiens, UniProt P00519, F317L)
T2 construct: purchased Eurofins DiscoverX Corporation

PAK4 = molecular target: T3, PAK4 (Homo sapiens, UniProt O96013)
T3 construct: purchased Eurofins DiscoverX Corporation (KINOMEscan)

PCTK3 = molecular target: T4, PCTK3 (Homo sapiens, UniProt Q07002)
T4 construct: purchased Eurofins DiscoverX Corporation (KINOMEscan)

MLK1 = MLK1 (Homo sapiens, UniProt P80192)
EPHA1 = molecular target: T5, EPHA1 (Homo sapiens, UniProt P21709)
T5 construct: purchased Eurofins DiscoverX (KINOMEscan service)

HCK = molecular target: T6, HCK (Homo sapiens, UniProt P08631)
T6 construct: purchased Eurofins DiscoverX Corporation

ANKK1 = ANKK1 (Homo sapiens, UniProt Q8NFD2)
PIK3CA(C420R) = PIK3CA(C420R) (Homo sapiens, UniProt P42336, C420R)
AKT2 = AKT2 (Homo sapiens, UniProt P31751)
VEGFR2 = molecular target: T7, VEGFR2 (Homo sapiens, UniProt P35968)
T7 construct: purchased Eurofins DiscoverX

[2] = molecular target: T8, ABL1(F317I)-nonphosphorylated (Homo sapiens, UniProt P00519, F317I)
T8 construct: purchased Eurofins DiscoverX Corporation

RIPK5 = molecular target: T9, RIPK5 (Homo sapiens, UniProt Q6XUX3)
T9 construct: purchased Eurofins DiscoverX Corporation (KINOMEscan screening service)

MELK = MELK (Homo sapiens, UniProt Q14680)
PIK3CA(E542K) = PIK3CA(E542K) (Homo sapiens, UniProt P42336, E542K)
BRAF(V600E) = BRAF(V600E) (Homo sapiens, UniProt P15056, V600E)
SGK3 = molecular target: T10, SGK3 (Homo sapiens, UniProt Q96BR1)
T10 construct: purchased Eurofins DiscoverX (KINOMEscan service)

YANK1 = molecular target: T11, YANK1 (Homo sapiens, UniProt Q8WU08)
T11 construct: purchased Eurofins DiscoverX

TXK = molecular target: T12, TXK (Homo sapiens, UniProt P42681)
T12 construct: purchased Eurofins DiscoverX

PIK3CG = PIK3CG (Homo sapiens, UniProt P48736)
PFCDPK1(P. falciparum) = molecular target: T13, PFCDPK1(P. falciparum) (Plasmodium falciparum, UniProt P62344)
T13 construct: purchased Eurofins DiscoverX Corporation (KINOMEscan)

CDC2L1 = CDC2L1 (Homo sapiens, UniProt P21127)
AAK1 = molecular target: T14, AAK1 (Homo sapiens, UniProt Q2M2I8)
T14 construct: purchased Eurofins DiscoverX Corporation

HIPK4 = molecular target: T15, HIPK4 (Homo sapiens, UniProt Q8NE63)
T15 construct: purchased Eurofins DiscoverX Corporation

MST2 = MST2 (Homo sapiens, UniProt Q13188)
MAPKAPK5 = MAPKAPK5 (Homo sapiens, UniProt Q8IW41)
MST3 = MST3 (Homo sapiens, UniProt Q9Y6E0)
PAK2 = molecular target: T16, PAK2 (Homo sapiens, UniProt Q13177)
T16 construct: purchased Eurofins DiscoverX Corporation (KINOMEscan)

FYN = molecular target: T17, FYN (Homo sapiens, UniProt P06241)
T17 construct: purchased Eurofins DiscoverX Corporation

EPHA4 = molecular target: T18, EPHA4 (Homo sapiens, UniProt P54764)
T18 construct: purchased Eurofins DiscoverX (KINOMEscan service)

CASK = CASK (Homo sapiens, UniProt O14936)
BRSK1 = BRSK1 (Homo sapiens, UniProt Q8TDC3)
FAK = molecular target: T19, FAK (Homo sapiens, UniProt Q05397)
T19 construct: purchased Eurofins DiscoverX Corporation

CDK8 = CDK8 (Homo sapiens, UniProt P49336)
PIK3CA(H1047L) = PIK3CA(H1047L) (Homo sapiens, UniProt P42336, H1047L)
IRAK1 = IRAK1 (Homo sapiens, UniProt P51617)
ALK(L1196M) = ALK(L1196M) (Homo sapiens, UniProt Q9UM73, L1196M)

Sequence of PIK3CA(H1047L) (P42336 whole entry H1047L): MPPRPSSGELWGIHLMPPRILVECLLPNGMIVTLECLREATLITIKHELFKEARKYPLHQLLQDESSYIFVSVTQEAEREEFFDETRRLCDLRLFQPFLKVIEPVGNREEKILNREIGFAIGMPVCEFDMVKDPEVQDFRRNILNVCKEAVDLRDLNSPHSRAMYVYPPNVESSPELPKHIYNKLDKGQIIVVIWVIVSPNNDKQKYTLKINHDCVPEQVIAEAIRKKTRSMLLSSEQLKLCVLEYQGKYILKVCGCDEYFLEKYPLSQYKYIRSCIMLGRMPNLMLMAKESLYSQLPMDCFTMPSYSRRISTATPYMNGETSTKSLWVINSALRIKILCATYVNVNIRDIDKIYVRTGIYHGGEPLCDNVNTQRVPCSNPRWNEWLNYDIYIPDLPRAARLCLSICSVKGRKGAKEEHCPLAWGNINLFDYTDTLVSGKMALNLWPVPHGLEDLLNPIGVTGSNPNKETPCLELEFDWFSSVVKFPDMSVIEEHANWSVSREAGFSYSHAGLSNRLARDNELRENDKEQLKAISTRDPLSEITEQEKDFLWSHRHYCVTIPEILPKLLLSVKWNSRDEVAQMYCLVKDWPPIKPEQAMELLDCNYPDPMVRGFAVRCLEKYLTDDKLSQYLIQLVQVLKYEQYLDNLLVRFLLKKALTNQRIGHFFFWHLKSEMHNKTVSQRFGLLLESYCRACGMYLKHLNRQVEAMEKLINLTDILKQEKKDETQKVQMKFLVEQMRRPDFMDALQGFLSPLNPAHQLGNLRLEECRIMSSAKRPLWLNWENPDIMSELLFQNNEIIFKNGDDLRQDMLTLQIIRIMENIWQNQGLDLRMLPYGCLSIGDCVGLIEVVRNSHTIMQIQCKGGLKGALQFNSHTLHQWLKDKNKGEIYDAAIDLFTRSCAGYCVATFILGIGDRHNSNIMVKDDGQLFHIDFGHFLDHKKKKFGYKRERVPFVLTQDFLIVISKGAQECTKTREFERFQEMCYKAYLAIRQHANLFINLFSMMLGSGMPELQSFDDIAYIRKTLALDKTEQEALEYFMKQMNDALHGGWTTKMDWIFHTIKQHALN
T16 sequence (Q13177 whole entry): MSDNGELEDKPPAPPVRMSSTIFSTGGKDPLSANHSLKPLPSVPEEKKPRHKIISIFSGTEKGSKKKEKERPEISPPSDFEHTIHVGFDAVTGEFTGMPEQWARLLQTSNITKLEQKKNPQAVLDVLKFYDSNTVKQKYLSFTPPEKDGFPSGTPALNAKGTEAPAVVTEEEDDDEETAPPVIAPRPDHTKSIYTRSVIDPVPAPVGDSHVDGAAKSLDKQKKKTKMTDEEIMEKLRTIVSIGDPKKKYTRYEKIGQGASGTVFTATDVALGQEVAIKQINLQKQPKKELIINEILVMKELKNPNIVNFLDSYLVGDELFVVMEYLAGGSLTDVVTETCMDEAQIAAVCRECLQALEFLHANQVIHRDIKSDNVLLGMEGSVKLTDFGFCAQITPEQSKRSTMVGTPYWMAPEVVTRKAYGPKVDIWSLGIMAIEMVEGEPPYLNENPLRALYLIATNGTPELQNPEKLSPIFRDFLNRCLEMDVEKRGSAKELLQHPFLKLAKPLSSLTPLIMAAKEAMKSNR
T9 sequence (Q6XUX3 whole entry): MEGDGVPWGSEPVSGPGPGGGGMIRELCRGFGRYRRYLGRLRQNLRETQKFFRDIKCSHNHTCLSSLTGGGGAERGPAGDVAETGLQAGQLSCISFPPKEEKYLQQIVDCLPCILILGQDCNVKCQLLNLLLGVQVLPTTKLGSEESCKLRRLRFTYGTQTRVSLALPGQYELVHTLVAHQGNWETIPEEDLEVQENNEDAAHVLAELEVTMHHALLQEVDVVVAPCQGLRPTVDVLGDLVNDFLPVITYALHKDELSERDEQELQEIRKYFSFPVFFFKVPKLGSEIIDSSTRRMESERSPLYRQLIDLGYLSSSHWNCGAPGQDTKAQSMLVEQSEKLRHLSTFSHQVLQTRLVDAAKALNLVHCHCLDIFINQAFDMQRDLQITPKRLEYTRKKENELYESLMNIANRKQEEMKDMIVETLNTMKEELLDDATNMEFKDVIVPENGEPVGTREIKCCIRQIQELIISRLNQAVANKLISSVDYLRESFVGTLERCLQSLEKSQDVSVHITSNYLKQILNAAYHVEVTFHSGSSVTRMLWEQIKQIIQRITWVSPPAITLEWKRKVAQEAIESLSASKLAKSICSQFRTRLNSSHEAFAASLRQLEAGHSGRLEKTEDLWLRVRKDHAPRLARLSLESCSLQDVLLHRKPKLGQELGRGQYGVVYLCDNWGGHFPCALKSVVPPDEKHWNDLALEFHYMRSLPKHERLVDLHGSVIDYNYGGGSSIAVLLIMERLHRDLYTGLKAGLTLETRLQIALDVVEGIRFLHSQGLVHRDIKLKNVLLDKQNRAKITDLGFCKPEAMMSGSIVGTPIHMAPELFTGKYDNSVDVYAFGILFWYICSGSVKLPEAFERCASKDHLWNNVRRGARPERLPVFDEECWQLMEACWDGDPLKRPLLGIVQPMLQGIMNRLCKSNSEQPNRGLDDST
Sequence of INSR (P06213 28-1382): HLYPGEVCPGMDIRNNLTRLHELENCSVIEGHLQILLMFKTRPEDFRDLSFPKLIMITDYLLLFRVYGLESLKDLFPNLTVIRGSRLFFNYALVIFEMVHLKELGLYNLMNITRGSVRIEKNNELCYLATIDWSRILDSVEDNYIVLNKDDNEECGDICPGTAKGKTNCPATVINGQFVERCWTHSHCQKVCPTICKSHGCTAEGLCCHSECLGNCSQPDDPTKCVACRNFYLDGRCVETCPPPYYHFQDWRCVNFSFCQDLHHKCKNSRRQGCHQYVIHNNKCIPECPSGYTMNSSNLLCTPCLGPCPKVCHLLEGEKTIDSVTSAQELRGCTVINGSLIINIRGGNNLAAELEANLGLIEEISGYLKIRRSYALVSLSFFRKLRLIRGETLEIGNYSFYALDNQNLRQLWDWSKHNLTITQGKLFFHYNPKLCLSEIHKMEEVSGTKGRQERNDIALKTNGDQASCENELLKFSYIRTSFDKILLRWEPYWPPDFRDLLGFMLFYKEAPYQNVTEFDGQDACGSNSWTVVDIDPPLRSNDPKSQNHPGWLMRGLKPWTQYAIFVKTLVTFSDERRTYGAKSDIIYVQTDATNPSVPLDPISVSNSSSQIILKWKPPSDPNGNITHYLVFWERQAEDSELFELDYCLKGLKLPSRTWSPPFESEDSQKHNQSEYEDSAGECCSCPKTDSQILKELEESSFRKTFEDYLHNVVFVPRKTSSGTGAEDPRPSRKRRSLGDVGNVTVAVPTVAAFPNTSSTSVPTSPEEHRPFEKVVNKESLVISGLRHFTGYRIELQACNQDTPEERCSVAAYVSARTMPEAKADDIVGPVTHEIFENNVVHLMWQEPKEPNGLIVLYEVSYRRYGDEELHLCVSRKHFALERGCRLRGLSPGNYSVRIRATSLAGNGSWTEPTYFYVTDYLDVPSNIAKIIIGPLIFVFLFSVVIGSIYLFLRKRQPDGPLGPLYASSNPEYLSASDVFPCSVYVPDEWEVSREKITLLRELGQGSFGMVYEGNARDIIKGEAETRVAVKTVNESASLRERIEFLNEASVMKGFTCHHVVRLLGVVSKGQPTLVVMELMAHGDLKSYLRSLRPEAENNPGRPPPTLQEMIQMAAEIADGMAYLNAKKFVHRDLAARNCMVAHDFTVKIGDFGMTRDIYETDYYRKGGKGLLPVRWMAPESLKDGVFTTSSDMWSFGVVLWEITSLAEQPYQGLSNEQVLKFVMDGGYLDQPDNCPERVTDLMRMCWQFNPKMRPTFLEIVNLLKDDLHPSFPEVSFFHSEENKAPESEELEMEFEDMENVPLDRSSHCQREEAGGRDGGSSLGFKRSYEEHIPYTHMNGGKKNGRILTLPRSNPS
T1 sequence (Q8IYT8 whole entry): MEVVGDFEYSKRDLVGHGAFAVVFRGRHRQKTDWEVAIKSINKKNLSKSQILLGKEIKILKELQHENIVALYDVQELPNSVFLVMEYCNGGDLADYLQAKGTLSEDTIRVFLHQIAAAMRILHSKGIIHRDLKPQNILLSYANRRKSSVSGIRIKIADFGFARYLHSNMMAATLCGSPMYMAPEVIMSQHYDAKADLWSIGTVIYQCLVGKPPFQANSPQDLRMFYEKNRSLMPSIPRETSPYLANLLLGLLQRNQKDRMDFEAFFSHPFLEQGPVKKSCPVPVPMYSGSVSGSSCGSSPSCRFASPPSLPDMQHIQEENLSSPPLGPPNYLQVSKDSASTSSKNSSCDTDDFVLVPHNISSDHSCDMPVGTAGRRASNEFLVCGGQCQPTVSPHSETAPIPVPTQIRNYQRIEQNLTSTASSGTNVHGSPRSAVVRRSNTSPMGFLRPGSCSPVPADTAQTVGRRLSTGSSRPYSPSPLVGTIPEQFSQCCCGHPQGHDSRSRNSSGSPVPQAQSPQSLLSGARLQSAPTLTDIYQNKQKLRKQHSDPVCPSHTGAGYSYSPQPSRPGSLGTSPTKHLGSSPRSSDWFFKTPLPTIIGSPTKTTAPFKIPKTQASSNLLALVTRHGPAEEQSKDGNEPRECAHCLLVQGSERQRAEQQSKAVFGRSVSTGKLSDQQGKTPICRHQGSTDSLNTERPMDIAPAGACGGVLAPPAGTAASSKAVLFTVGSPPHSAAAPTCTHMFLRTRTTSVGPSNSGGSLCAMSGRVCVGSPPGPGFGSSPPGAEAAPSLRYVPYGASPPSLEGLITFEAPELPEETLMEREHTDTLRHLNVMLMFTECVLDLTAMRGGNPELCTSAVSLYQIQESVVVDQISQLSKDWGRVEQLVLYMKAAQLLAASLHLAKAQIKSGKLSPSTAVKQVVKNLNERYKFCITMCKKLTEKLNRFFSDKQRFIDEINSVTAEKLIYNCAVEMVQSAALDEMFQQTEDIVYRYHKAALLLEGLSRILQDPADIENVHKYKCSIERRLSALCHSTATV
Sequence of PIK3CA(E542K) (P42336 whole entry E542K): as the sequence (P42336 whole entry H1047L) above, with E542K, L1047H counted along it
Sequence of PIK3CA(C420R) (P42336 whole entry C420R): as the sequence (P42336 whole entry H1047L) above, with C420R, L1047H counted along it

Compound: C=CC(=O)Nc1ccc(OC)c(Nc2cc(-c3[nH]c(CC)nc3-c3cccc(NC(=O)c4cccc5c4NC(=O)c4ccccc4N5)c3)ccn2)c1 [Compound 4, N-(3-(5-(2-((5-Acrylamido-2-methoxyphenyl)amino)pyridin-4-yl)-2-ethyl-1H-imidazol-4-yl)phenyl)-11-oxo-10,11-dihydro-5H-dibenzo[b,e][1,4]diazepine-9-carboxamide]
- remaining binding at 1 µM (INSR): 97%
- remaining binding at 1 µM (CAMK2B): 72%
- remaining binding at 1 µM (ULK2): 80%
- remaining binding at 1 µM [1]: 85%
- remaining binding at 1 µM (PAK4): 89%
- remaining binding at 1 µM (PCTK3): 93%
- remaining binding at 1 µM (MLK1): 86%
- remaining binding at 1 µM (EPHA1): 100%
- remaining binding at 1 µM (HCK): 14%
- remaining binding at 1 µM (ANKK1): 87%
- remaining binding at 1 µM (PIK3CA(C420R)): 66%
- remaining binding at 1 µM (AKT2): 91%
- remaining binding at 1 µM (VEGFR2): 100%
- remaining binding at 1 µM [2]: 40%
- remaining binding at 1 µM (RIPK5): 79%
- remaining binding at 1 µM (MELK): 100%
- remaining binding at 1 µM (PIK3CA(E542K)): 100%
- remaining binding at 1 µM (BRAF(V600E)): 100%
- remaining binding at 1 µM (SGK3): 90%
- remaining binding at 1 µM (YANK1): 84%
- remaining binding at 1 µM (TXK): 42%
- remaining binding at 1 µM (PIK3CG): 65%
- remaining binding at 1 µM (PFCDPK1(P. falciparum)): 87%
- remaining binding at 1 µM (CDC2L1): 100%
- remaining binding at 1 µM (AAK1): 100%
- remaining binding at 1 µM (HIPK4): 92%
- remaining binding at 1 µM (MST2): 14%
- remaining binding at 1 µM (MAPKAPK5): 100%
- remaining binding at 1 µM (MST3): 73%
- remaining binding at 1 µM (PAK2): 100%
- remaining binding at 1 µM (FYN): 64%
- remaining binding at 1 µM (EPHA4): 95%
- remaining binding at 1 µM (CASK): 97%
- remaining binding at 1 µM (BRSK1): 100%
- remaining binding at 1 µM (FAK): 99%
- remaining binding at 1 µM (CDK8): 81%
- remaining binding at 1 µM (PIK3CA(H1047L)): 100%
- remaining binding at 1 µM (IRAK1): 85%
- remaining binding at 1 µM (ALK(L1196M)): 89%
